Experimental data as given in ChEMBL document CHEMBL5579840, “Optimization of diastereomeric dihydropyridines as antimalarials” (Eur J Med Chem, 2024).

What was measured:
[1] = system: Plasmodium falciparum; assay: Antimalarial activity against chloroquine-sensitive Plasmodium falciparum 3D7 infected in erythroctes incubated for 72 hrs by SYBR green 1 based spectrofluorometer; format: functional, organism-based, Erythrocyte
[2] = system: Plasmodium falciparum; assay: Antimalarial activity against chloroquine-resistant Plasmodium falciparum K1 infected in erythroctes incubated for 72 hrs by SYBR green 1 based spectrofluorometer; format: functional, organism-based, Erythrocyte
[3] = Plasmodium falciparum, 3D7, Erythrocyte, 72 h
[4] = Plasmodium falciparum, K1, Erythrocyte, 72 h

SMILES | EC50 ([1]; erythrocyte) | EC50 ([2]; erythrocyte) | EC50 [1, 3] | EC50 [2, 4]
CCOC(=O)C1=C(C)NC2=C(C(=O)OC(c3ccc(OC)c(OC)c3)C2)C1c1ccc(Cl)cc1 (stereo in doubt; 5) | 91.8 nM | 160 nM | – | –
CCOC(=O)C1=C(C(=O)OCC)C(c2ccccc2Cl)C2=C(CC(c3ccc(OC)c(OC)c3)OC2=O)N1 (stereo in doubt; 33B) | 119 nM | 77.6 nM | – | –
CCOC(=O)C1=C(C)NC2=C(C(=O)OC(c3ccc(OC)c(OC)c3)C2)C1c1ccccc1C (stereo in doubt; 6B) | 38.5 nM | 59.7 nM | – | –
CCOC(=O)C1=C(C)NC2=C(C(=O)OC(c3ccc(OC)c(OC)c3)C2)C1c1ccc(Cl)cc1 (stereo in doubt; 5B) | 47.6 nM | 53.8 nM | – | –
CCOC(=O)C1=C(C)NC2=C(C(=O)OC(c3ccc(OC)c(OC)c3)C2)C1c1ccccc1 (stereo in doubt; 1B) | 83 nM | 80 nM | – | –
CCOC(=O)C1=C(C)NC2=C(C(=O)OC(c3ccc(OC)c(OC)c3)C2)C1c1ccc(Br)cc1 (mixture of isomers) | 213 nM | 634 nM | – | –
CCN(CC)CCCC(C)Nc1ccnc2cc(Cl)ccc12 (stereo unspecified) [CHLOROQUINE] | – | – | 48 nM | 1360 nM
CCOC(=O)C1=C(C)NC2=C(C(=O)CC(c3ccc(OC)c(OC)c3)C2)C1c1ccc(Cl)cc1 (stereo in doubt; 36B) | 10.3 nM | 9.3 nM | – | –
CCCOC(=O)C1=C(C)NC2=C(C(=O)OC(c3ccc(OC)c(OC)c3)C2)C1c1ccccc1Cl (mixture of isomers) | 1670 nM | 1630 nM | – | –
CCOC(=O)C1=C(C)NC2=C(C(=O)OC(c3ccc(OC)c(OC)c3)C2)C1c1ccc(C)cc1 (mixture of isomers) | 1250 nM | 1610 nM | – | –
CCOC(=O)C1=C(C)NC2=C(C(=O)OC(c3ccc(Cl)cc3)C2)C1c1ccccc1Cl (stereo in doubt; 20B) | 2860 nM | 2160 nM | – | –
CCOC(=O)C1=C(C)NC2=C(C(=O)OC(c3ccc(Cl)cc3)C2)C1c1ccccc1Cl (mixture of isomers) | > 5500 nM | > 5500 nM | – | –
CCOC(=O)C1=C(C)NC2=C(C(=O)OC(c3ccccc3OC)C2)C1c1ccccc1Cl (stereo in doubt; 24B) | > 5500 nM | > 5500 nM | – | –
COc1ccc(C2CC3=C(C(=O)O2)C(c2ccccc2Cl)C(C(=O)OCc2ccccc2)=C(C)N3)cc1OC (mixture of isomers) | > 7500 nM | > 7500 nM | – | –
CCOC(=O)C1=C(C)NC2=C(C(=O)OC(c3ccc(OC)cc3)C2)C1c1ccccc1Cl (stereo in doubt; 26B) | 2160 nM | 1960 nM | – | –
COC(=O)C1=C(C)NC2=C(C(=O)OC(c3ccc(OC)c(OC)c3)C2)C1c1ccccc1Cl (mixture of isomers) | > 9400 nM | > 9400 nM | – | –
COCC1=C(C(=O)OC)C(c2ccc(Cl)cc2C)C2=C(CC(c3ccc(OC)c(OC)c3)CC2=O)N1 (mixture of isomers) | 2.4 nM | 4.6 nM | – | –
COCC1=C(C(=O)OC)C(c2ccc(Cl)cc2)C2=C(CC(c3cc(OC)c(OC)c(OC)c3)OC2=O)N1 (mixture of isomers) | 30.8 nM | 43.6 nM | – | –
OC(c1cc(C(F)(F)F)nc2c(C(F)(F)F)cccc12)C1CCCCN1 (stereo unspecified) [MEFLOQUINE] | – | – | 62 nM | 31 nM
COCC1=C(C(=O)OC)C(c2ccc(Cl)cc2C)C2=C(CC(c3ccc(OC)c(OC)c3)OC2=O)N1 (mixture of isomers) | 112 nM | 81.3 nM | – | –
CCOC(=O)C1=C(C)NC2=C(C(=O)OC(c3ccc(Cl)c(OC)c3)C2)C1c1ccc(Cl)cc1C (mixture of isomers) | 80 nM | 73.2 nM | – | –
CCOC(=O)C1=C(C)NC2=C(C(=O)CC(c3ccc(Cl)c(OC)c3)C2)C1c1ccc(Cl)cc1C (mixture of isomers) | 78.3 nM | 69.1 nM | – | –
CCOC(=O)C1=C(C)NC2=C(C(=O)OC(c3ccc(OC)c(OC)c3)C2)C1c1ccc(Br)cc1 (stereo in doubt; 12B) | 59 nM | 341 nM | – | –
CCOC(=O)C1=C(C)NC2=C(C(=O)OC(c3ccc(OC)c(OC)c3)C2)C1c1ccccc1Cl (mixture of isomers) | 372 nM | 323 nM | – | –
COCC1=C(C(=O)OC)C(c2ccc(Cl)cc2)C2=C(CC(c3cc(OC)c(OC)c(OC)c3)OC2=O)N1 (stereo in doubt; 56B) | 29 nM | 42.3 nM | – | –
COc1ccc(C2CC3=C(C(=O)O2)C(c2ccccc2Cl)C(C(=O)OC(C)(C)C)=C(C)N3)cc1OC (stereo in doubt; 30B) | – | 272 nM | – | –
CCOC(=O)C1=C(C)NC2=C(C(=O)OC(c3cccc(OC)c3)C2)C1c1ccccc1Cl (stereo in doubt; 25B) | 626 nM | 363 nM | – | –
CCOC(=O)C1=C(C)NC2=C(C(=O)OC(c3ccc(OC)c(OC)c3)C2)C1c1ccccc1OC (mixture of isomers) | > 5500 nM | – | – | –
CCOC(=O)C1=C(C)NC2=C(C(=O)OC(c3ccccc3)C2)C1c1ccccc1Cl (stereo in doubt; 17B) | > 11000 nM | – | – | –
CCOC(=O)C1=C(C)NC2=C(C(=O)OC(c3ccccc3)C2)C1c1ccccc1Cl (mixture of isomers) | > 10000 nM | – | – | –
